From patent US20050054103A1, “Expansion of renewable stem cell populations using modulators of PI 3-kinase” (priority 2003, published 2005)

Experiments:
HL-60 cells = experiment: Copper determination in chelator treated cells (atomic absorption); type: cell-based, human; settings: for activity at 20 µM / activity at 100 µM / activity at 500 µM: Homo sapiens, HL-60, read-out: Average Intracellular Cu (% of control)
Method: Copper Determination: Cells were harvested by centrifugation at 1000×g for 5 minutes. The cell pellet was washed three times by re-suspending the cells in PBS (Ca^++ and Mg^++ free) and centrifugation at 1000×g. An aliquot containing 2×10^6 cells was then transferred into a metal-free Eppendorf tube and the cells were recovered by centrifugation at 1000×g. The cell pellet was re-suspended in 0.03 M ultra-pure nitric acid to give a concentration of 1×10^7 cells/ml. The cells were homogenized with a high shear mixer (polytron, Kinematica, Switzerland) for 1 minutes to disrupt the cell and release intracellular copper content. Cell samples were vortexed before transferring to a vial autosampler and analyzed in duplicate by a Perkin Elmer graphite furnace atomic absorption spectrophotometer at a wavelength of 324.7 nm. The samples were analyzed against copper standard solution prepared from a commercial stock solution that was diluted with 0.03 M ultra pure nitric acid.
FIG. 44 provides the chemical structure of the various chelators employed in these experiments.

[1] = tested on: Mouse erythroleukemic cells (MEL); experiment: HMBA-induced differentiation of erythroleukemic cells; type: cell-based; settings: day 3
Method: Mouse erythroleukemic cells (MEL): MEL cells are erythroblast like cells. Following treatment with several chemicals (differentiation inducers) the cells undergo erythroid differentiation and accumulate hemoglobin. […] At day 3 of the culture, the total number of cells and the percentage of hemoglobin-containing cells were determined (Table 7).
On day 3, total cell number and hemoglobin containing (benzidine positive) cells were determined.

CD34 cells = experiment: Transition metal chelators in CD34+ cell liquid cultures (cell number, CD34 cells, clonability); type: cell-based, human; settings: for cell proliferation and CFUc expansion in long-term CD34 cultures: long term cultures with early cytokines
Method: The interphase layer of mononuclear cells were collected, washed three times with Ca/Mg free phosphate buffered saline containing 1% bovine serum albumin (BSA). The cells were incubated for 30 min. at 4° C. with murine monoclonal anti CD34 antibody (0.5 μg/10^6 mononuclear cells) and thereafter isolated using the miniMACS apparatus (Miltenyi-Biotec, Bergisch, Gladbach, Germany) according to the manufacturer's protocol.
Culture procedures: For the expansion of progenitor cells, CD34^+ enriched fractions or unseparated mononuclear cells were seeded at about 1-3×10^4 cells/ml in either alpha minimal essential medium containing 10% preselected fetal calf serum (FCS) (both from GIBCO, Grand Island, N.Y.), or serum-free medium (Progenitor-34 medium, Life Technologies, Grand Island, N.Y.). The media were supplemented with a mixture of growth factors and transition metal chelators. The cultures were incubated at 37° C. in an atmosphere of 5% CO2 in air with extra humidity. Half of the medium was changed weekly with fresh medium containing all the supplements.
Cloning potential evaluations: The cloning potential of cells developed in the liquid culture was assayed, at different intervals, in semi-solid medium. The cells were washed and seeded in 35 mm dishes in methylcellulose containing alpha medium supplemented with recombinant growth factors (SCF, G-CSF, GM-CSF and EPO). Following 2 weeks incubation, the cultures were scored with an inverted microscope. Colonies were classified as blast, mixed, erythroid, myeloid, and megakaryocytic, according to their cellular composition.
Morphological assessment: In order to characterize the resulting culture populations, aliquots of cells were deposited on a glass slide (cytocentrifuge, Shandon, Runcorn, UK), fixed and stained in May-Grunwald Giemsa. Other aliquots were stained by benzidine for intracellular hemoglobin.
Immunofluorescence staining: At different intervals, cells from the liquid cultures were assayed for CD34 antigen. Aliquots were harvested, washed and incubated on ice with FITC-labeled anti CD45 monoclonal antibody and either PE-labeled anti CD34 (HPCA-2) monoclonal antibody or PE-labeled control mouse Ig. After incubation, red cells were lysed with lysing solution, while the remaining cells were washed and analyzed by flow cytometer.
Flow cytometry: Cells were analyzed and sorted using FACStar^plus flow cytometer (Becton-Dickinson, Immunofluorometry systems, Mountain View, Calif.). Cells were passed at a rate of 1,000 cells/second through a […] nozzle, using saline as the sheath fluid. […] The PMTs was set at the appropriate voltage. Logarithmic amplification was applied for measurements of fluorescence and linear amplification—for forward light scatter. At least 10^4 cells were analyzed.
Cord blood-derived CD34 cells were plated in liquid culture in the presence of: FL—50 ng/ml, SCF—50 ng/ml, IL-6—50 ng/ml, with or without IL-3—20 ng/ml, with or without TEPA—10 μM. On day 7, the percentage of CD34 cells and the total cell number were determined. Aliquots equivalent to 1×10^3 initiating cells were assayed on days 0 and 7 for colony forming cells (CFU) by cloning in semi-solid medium. CFU expansion represents the ratio of CFU present on day 7 to CFU present on day 0.
CD34^+ cells derived from human neonatal cord blood were purified by immunomagnetic method and then cultured in liquid medium supplemented with cytokines either with or without transition metal chelators. At weekly intervals, the cultures were demi-depopulated by removing half of the culture content (supernatant and cells) and replacing it with fresh medium, cytokines and the chelators. At the indicated weeks the cellular content of the cultures were quantified for total cells (by a manual microscopic/hemocytometric method), for CD34^+ cells (by immuno-flow cytometry) and for clonogenic cells (by cloning the cells in cytokine-supplemented semi-solid medium).

CD34+ cells [2] = experiment: Ex vivo expansion of CD34+ cell enriched cultures with RXR, RAR and RAR+RXR antagonists (CFU, CD34+ counts, FACS); type: cell-based, human
Method: Cultures were prepared and maintained as described above.
, the percentage of cells bearing the CD34^+ marker (considered to be mostly committed progenitor cells), as well as the percentage of cells bearing the markers CD34^+/CD38^− and CD34^+Lin^− […]

CD34+ cells [3] = experiment: Nicotinamide supplementation of ex-vivo hematopoietic stem/progenitor cell cultures; type: cell-based, human; settings: for CD34+ cells per ml: 5 cytokines, re-selected
Method: Cultures were prepared and maintained as described above. Nicotinamide was added to cell cultures at concentrations of 1, 5 or 10 mM for up to three weeks culture period. All other procedures including mononuclear cell fraction collection and purification, purification of CD34^+ cells from mononuclear cell fractions, ex-vivo expansion of stem/progenitor cell populations, morphological assessment, surface antigen analysis, determination of CD34, CD38, Lin and other hematopoietic marker expression and cell population calculations were carried out as described in the experimental methods section of Example 1 above.
Hematopoietic CD34+ cell cultures were initiated in the presence of a combination of 5 cytokines, SCF, TPO, FLt3, IL-6 and IL-3, with or without different concentrations of nicotinamide. Following three weeks incubation period, the CD34+ cells were re-selected from culture by affinity re-purification method and were enumerated. […] In addition, the re-selected CD34+ cell fraction was FACS analyzed for stem/progenitor cell markers. The results, presented in FIGS. 15-17 and 18a-b, show substantial increases in the proportion of CD34+/CD38−, CD34+/Lin− and CD34+/(HLA-DR38−) cells in cultures treated with nicotinamide.

[4] = polyamine chelating agents, long-term CD34 cultures (FIGS. 39a-b)
[5] = HX-531 (10^−5M in table head), 3 weeks after seeding

Average Intracellular ppb Cu (HL-60 cells; 20 μM chelator) [ppb] | Average Intracellular ppb Cu (HL-60 cells; 100 μM chelator) [ppb] | Average Intracellular ppb Cu (HL-60 cells; 500 μM chelator) [ppb] | Compound | activity at 20 µM (HL-60 cells; 20 μM chelator) [%] | activity at 100 µM (HL-60 cells; 100 μM chelator) [%] | activity at 500 µM (HL-60 cells; 500 μM chelator) [%] | other results
15.8 | 17.7 | – | C1CNCCNCCN1.Cl.Cl.Cl [1,4,7-Triazacyclononane trihydrochloride] | 32 | 36 | – | –
37.9 | 27.4 | 28.3 | O=C1CC(=O)NCCNCCCNCCN1 [1,4,8,11-Tetraaza cyclotetradecane-5,7-dione] | 77 | 56 | 57 | –
13.4 | 12.1 | 9.6 | C1CNCCCNCCNCCCNC1 [1,4,8,12-tetraaza cyclopentadecane] | 27 | 25 | 19 | –
35.5 | 36.1 | 35.0 | C1COCCNCCOCCN1 [1,7-Dioxa-4,10-diazacyclododecane] | 72 | 73 | 71 | –
39.0 | 22.9 | 17.6 | C1CNCCOCCNCCN1 [1-Oxa-4,7,10-triazacyclododecane] | 79 | 46 | 36 | –
– | – | – | C[C@H](CS)C(=O)N1CCC[C@H]1C(=O)O [Captopril, captopril] | – | – | – | Benzidine Positive Cells (%) ([1]; HMBA + chelator 20 μM): 29%; Cells/ml (×10^4) ([1]; HMBA + chelator 20 μM): 34 ×10^4; Benzidine Positive Cells (%) ([1]; HMBA + chelator 40 μM): 12%; Cells/ml (×10^4) ([1]; HMBA + chelator 40 μM): 34 ×10^4
– | – | – | NCCN [EDA, ethylenediamine] | – | – | – | cell proliferation and CFUc expansion in long-term CD34 cultures (CD34 cells): support continuous cell proliferation and long-term generation of CFUc and to delay cell differentiation; concentration with optimal activity (CD34 cells; [4]): 20 µM
– | – | – | CC(=O)NCCCCCCNC(C)=O [HMBA, hexamethylene bisacetamide] | – | – | – | Benzidine Positive Cells (%) ([1]; HMBA 4 mM alone): 46%; Cells/ml (×10^4) ([1]; HMBA 4 mM alone): 32 ×10^4
– | – | – | CN1c2ccc([N+](=O)[O-])cc2N=C(c2ccc(C(=O)O)cc2)c2cc3c(cc21)C(C)(C)CCC3(C)C [HX-531, 4-[5H-2,3-(2,5-Dimethyl-2,5-Hexano) 5-Methyl-8-nitrodibenzo [b,e][1,4]diazepin-11-yl) Benzoic acid] | – | – | – | CD34^+ (×10^4) (CD34+ cells [2]; [5]): 167 ×10^4; CFU (×10^3) (CD34+ cells [2]; [5]): 1920 ×10^3; CFU mixed (×10^3) (CD34+ cells [2]; HX-531, 3 weeks after seeding): 120 ×10^3; CD34^+ (×10^4) (CD34+ cells [2]; HX-531, 5 weeks after seeding): 1636 ×10^4; CFU (×10^3) (CD34+ cells [2]; HX-531, 5 weeks after seeding): 8542 ×10^3; CD34^+ (×10^4) (CD34+ cells [2]; HX-531, 9 weeks after seeding): 4977 ×10^4; CFU (×10^3) (CD34+ cells [2]; HX-531, 9 weeks after seeding): 36557 ×10^3; CD34^+ (×10^4) (CD34+ cells [2]; HX-531, 11 weeks after seeding): 4055 ×10^4; CFU (×10^3) (CD34+ cells [2]; HX-531, 11 weeks after seeding): 67338 ×10^3
– | – | – | CCCOc1cc2c(cc1\C(C)=C/C=C/C(C)=C/C(=O)O)C(C)(C)CCC2(C)C [LGN 100754] | – | – | – | activity on ex vivo expansion of stem/progenitor cells (CFU, CD34+, CD34+/38−, CD34+/Lin−) (CD34+ cells [2]; 10^−7 M, with TPO, FLT3, IL-6 and IL-3, 3 and 5 weeks): no activity
33.8 | 26.2 | 27.9 | NCCCNCCCNCCCN [N,N′-bis(3-aminopropyl)-1,3-propanediamine] | 69 | 53 | 57 | –
– | – | – | NC(=O)c1cccnc1 [Nicotinamide] | – | – | – | CD34+ cells per ml (CD34+ cells [3]; 1 mM nicotinamide, three weeks): 99×10^4 cells per ml; increase in CD34+/CD38− cells density vs untreated control (CD34+ cells [3]; 1 mM, three weeks): 1.7 fold; increase in CD34+/Lin− cells density vs untreated control (CD34+ cells [3]; 1 mM, three weeks): 10.5 fold; CD34+ cells per ml (CD34+ cells [3]; 5 mM nicotinamide, three weeks): 180×10^4 cells per ml; increase in CD34+/(HLA-DR38−) cells density vs untreated control (CD34+ cells [3]; 5 mM, three weeks): 11.5 fold; increase in CD34+/CD38− cells density vs untreated control (CD34+ cells [3]; 5 mM, three weeks): 51.7 fold; increase in CD34+/Lin− cells density vs untreated control (CD34+ cells [3]; 5 mM, three weeks): 205.5 fold; % of CD34^+/CD38^− of total cells (CD34+ cells [3]; Nicotinamide 5 mM): 9.69%; % of CD34^+/Lin^− of total cells (CD34+ cells [3]; Nicotinamide 5 mM): 4.11%; % of CD34^+/CD38^− of total cells (CD34+ cells [3]; Nicotinamide 10 mM): 34.67%; % of CD34^+/Lin^− of total cells (CD34+ cells [3]; Nicotinamide 10 mM): 16.58%
– | – | – | CC(C)(S)[C@@H](N)C(=O)O [PEN, Penicillamine] | – | – | – | cell proliferation and CFUc expansion in long-term CD34 cultures (CD34 cells): sustained cell proliferation and expansion of clonogenic cells; concentration with optimal activity (CD34 cells; transition metal chelating agents, long-term CD34 cultures (FIGS. 40a-b)): 5 µM
27.7 | 21.2 | 16.8 | NCCNCCNCCN [TETA, triethylene-tetramine] | 56 | 43 | 34 | cell proliferation and CFUc expansion in long-term CD34 cultures (CD34 cells): support continuous cell proliferation and long-term generation of CFUc and to delay cell differentiation; concentration with optimal activity (CD34 cells; [4]): 20 µM
– | – | – | Copper | – | – | – | effect on TEPA activities (CD34 cells; TEPA-treated cultures supplemented with Copper): reversed
– | – | – | Zinc | – | – | – | cell proliferation and CFUc expansion in long-term CD34 cultures (CD34 cells): mimicked the effect of the chelating agents in long term cultures, but to a smaller extent than the chelators themselves

Compound | Average Intracellular ppb Cu (HL-60 cells; 20 μM chelator) [ppb] | Average Intracellular ppb Cu (HL-60 cells; 100 μM chelator) [ppb] | Average Intracellular ppb Cu (HL-60 cells; 500 μM chelator) [ppb] | activity at 20 µM (HL-60 cells; 20 μM chelator) [%] | activity at 100 µM (HL-60 cells; 100 μM chelator) [%] | activity at 500 µM (HL-60 cells; 500 μM chelator) [%] | other results
NCCCN(CCN)CCN [N,N,Bis (2 animoethyl) 1,3 propane diamine] | 10.8 | 13.4 | – | – | – | – | Average Intracellular Cu (% of control) (HL-60 cells; 20 μM chelator): 22%; Average Intracellular Cu (% of control) (HL-60 cells; 100 μM chelator): 27%
Glycyl-glycyl-histidine Cu complex | 202.7 | 582 | 1278 | – | – | – | Average Intracellular Cu (% of control) (HL-60 cells; 20 μM chelator): 411%; Average Intracellular Cu (% of control) (HL-60 cells; 100 μM chelator): 1181%; Average Intracellular Cu (% of control) (HL-60 cells; 500 μM chelator): 2592%
